In ChEMBL document CHEMBL1129981 (J Med Chem, 1997):

Key:
[1] = biological target: T1, Adrenergic receptor alpha-2 (Rattus norvegicus, UniProt P22086+P19328+P22909); experiment: Ability to displace [3H]rauwolscine from Alpha-2 adrenergic receptor in rat cortical membranes; format: cell membranes
T1 sequence (P22086 whole entry): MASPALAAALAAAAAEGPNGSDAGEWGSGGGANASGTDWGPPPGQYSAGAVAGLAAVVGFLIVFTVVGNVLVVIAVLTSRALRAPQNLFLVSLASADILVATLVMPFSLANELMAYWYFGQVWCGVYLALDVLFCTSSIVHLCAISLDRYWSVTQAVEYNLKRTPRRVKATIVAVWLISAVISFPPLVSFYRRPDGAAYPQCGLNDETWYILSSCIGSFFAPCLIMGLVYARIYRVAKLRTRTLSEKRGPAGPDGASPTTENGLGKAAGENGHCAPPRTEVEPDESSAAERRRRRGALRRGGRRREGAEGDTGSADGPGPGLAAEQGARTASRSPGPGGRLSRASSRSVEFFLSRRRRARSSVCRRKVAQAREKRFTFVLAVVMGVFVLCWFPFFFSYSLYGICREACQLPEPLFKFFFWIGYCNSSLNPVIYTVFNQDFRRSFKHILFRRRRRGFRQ
T1 sequence (P19328 whole entry): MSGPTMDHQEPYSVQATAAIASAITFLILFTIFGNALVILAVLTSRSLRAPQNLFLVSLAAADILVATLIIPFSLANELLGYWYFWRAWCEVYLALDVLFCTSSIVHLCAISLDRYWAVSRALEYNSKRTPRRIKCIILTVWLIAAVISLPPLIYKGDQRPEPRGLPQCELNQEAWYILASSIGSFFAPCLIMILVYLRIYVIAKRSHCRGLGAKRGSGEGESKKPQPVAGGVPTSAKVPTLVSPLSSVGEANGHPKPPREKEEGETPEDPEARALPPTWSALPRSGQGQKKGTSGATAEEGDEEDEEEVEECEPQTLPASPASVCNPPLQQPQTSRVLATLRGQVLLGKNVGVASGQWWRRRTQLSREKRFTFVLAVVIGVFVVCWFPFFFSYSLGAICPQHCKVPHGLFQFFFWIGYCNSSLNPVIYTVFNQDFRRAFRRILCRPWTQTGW
T1 sequence (P22909 whole entry): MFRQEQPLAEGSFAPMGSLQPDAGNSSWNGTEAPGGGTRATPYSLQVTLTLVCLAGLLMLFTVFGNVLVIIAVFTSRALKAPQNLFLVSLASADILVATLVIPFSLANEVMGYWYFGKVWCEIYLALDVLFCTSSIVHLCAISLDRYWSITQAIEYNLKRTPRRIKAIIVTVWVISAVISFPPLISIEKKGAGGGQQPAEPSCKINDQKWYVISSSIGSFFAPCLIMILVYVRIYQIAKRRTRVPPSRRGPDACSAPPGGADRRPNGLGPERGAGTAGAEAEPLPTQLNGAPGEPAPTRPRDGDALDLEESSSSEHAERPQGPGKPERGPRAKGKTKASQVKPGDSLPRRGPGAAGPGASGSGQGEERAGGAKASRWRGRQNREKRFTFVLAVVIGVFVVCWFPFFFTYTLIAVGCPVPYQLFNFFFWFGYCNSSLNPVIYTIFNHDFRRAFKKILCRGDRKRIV

[2] = biological target: Sodium-dependent serotonin transporter (Rattus norvegicus, UniProt P31652); experiment: Inhibition of uptake of [3H]5-HT in synaptosomes from rat cortex; format: functional, subcellular, Brain
Chain of Sodium-dependent serotonin transporter (P31652 whole entry): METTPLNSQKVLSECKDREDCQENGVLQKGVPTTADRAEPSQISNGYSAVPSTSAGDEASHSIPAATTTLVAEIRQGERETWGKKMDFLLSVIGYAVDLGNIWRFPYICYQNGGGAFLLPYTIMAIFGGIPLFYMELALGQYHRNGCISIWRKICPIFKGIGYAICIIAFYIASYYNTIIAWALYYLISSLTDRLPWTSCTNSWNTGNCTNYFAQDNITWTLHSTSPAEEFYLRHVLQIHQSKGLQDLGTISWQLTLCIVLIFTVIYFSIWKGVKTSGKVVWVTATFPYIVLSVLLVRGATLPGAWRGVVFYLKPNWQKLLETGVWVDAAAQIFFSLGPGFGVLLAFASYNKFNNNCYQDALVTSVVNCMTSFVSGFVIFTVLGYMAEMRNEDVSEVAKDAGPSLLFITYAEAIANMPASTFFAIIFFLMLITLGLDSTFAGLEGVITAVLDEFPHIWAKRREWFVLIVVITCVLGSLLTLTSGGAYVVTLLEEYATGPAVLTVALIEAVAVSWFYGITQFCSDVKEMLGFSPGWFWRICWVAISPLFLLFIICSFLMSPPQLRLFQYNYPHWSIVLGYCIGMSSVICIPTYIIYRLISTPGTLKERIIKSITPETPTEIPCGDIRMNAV

| Ki [1] [nM] | IC50 [2] [nM] | SMILES |
| --- | --- | --- |
| 4.17 | 887 | C1=C(CC2=NCCN2)CCc2ccccc21 [NAPAMEZOLE] |
| 1.88 | 18.1 | COc1cccc2c1CCC[C@H]2CN(C)CCc1ccc2c(c1)OCC2 |
| 5.33 | 5.81 | COc1cccc2c1CCC[C@H]2CN(C)CCc1ccc2c(c1)CN(S(C)(=O)=O)C2 |
| 11 | 60.3 | CN(CCc1ccc2c(c1)OCO2)CC1CCCc2c1ccc1c2OCO1 (stereo not drawn) |
| 3.42 | 31.8 | COc1cccc2c1CCC[C@H]2CN(C)CCc1ccc2c(c1)CCN2 |
| 88.2 | 414 | COc1cccc2c1CCC[C@H]2CNCCc1ccc2c(c1)OCO2 |
| 266 |  | COc1cccc2c1CCC[C@H]2CN(CCc1ccc2c(c1)OCO2)C1CC1 |
| 5.21 | 11.3 | COc1cccc2c1CCC[C@H]2CN(C)CCc1ccc2[nH]cnc2c1 |
| 113 | 862 | CN(CCc1ccc2c(c1)OCO2)C[C@@H]1CC[C@@H]2CCOc3cccc1c32 |
| 1.86 | 198 | CCOc1cccc2c1CCC[C@H]2CN(C)CCc1ccc2c(c1)OCO2 |
| 2.64 | 229 | COc1cccc2c1CCC[C@H]2CN(C)CCc1ccc2c(c1)COC2 |
| 94.1 | 436 | CN(CCc1ccc2c(c1)OCO2)C[C@@H]1CC[C@H]2CCOc3cccc1c32 |
| 184 |  | C#CCN(CCc1ccc2c(c1)OCO2)C[C@@H]1CCCc2c(OC)cccc21 |
| 158 | 132 | COc1cccc2c1CCC[C@H]2CN(C)CCc1ccc2c(c1)CCN2S(=O)(=O)C(F)(F)F |
| 8.19 | 1090 | CN(CCc1ccc2c(c1)OCO2)CC1CCCc2ccccc21 (stereo not drawn) |
| 6.79 | 18.1 | COc1cccc2c1CCC[C@H]2CN(C)CCc1ccc2cccnc2c1 |
| 7.5 | 68.3 | COc1cccc2c1CCC[C@H]2CN(C)CCc1ccc2oc(O)nc2c1 |
| 2.12 | 86.7 | COc1cccc2c1CCC[C@H]2CN(C)CCc1ccc2nc(C)sc2c1 |
| 11.7 | 79.1 | COc1cccc2c1CCC[C@H]2CN(C)CCc1ccc2c(c1)NCC2 |
| 6.71 | 20.6 | COc1cccc2c1CCCC2CN(C)CCc1ccc2c(c1)OCO2 (stereo not drawn) |

| Ki [1] [nM] | IC50 [2] [nM] | SMILES |
| --- | --- | --- |
| 57.5 | 1420 | COc1ccc2c(c1)C(CN(C)CCc1ccc3c(c1)OCO3)CCC2 (stereo not drawn) |
| 88.6 | 1310 | COc1cccc2c1CCC[C@@H]2CN(C)CCc1ccc2c(c1)OCO2 |
| 4.82 | 51 | COc1cccc2c1CCC[C@H]2CN(C)CCc1ccc2c(c1)C=CS2(=O)=O |
| 3.91 | 46.7 | COc1cccc2c1CCC[C@H]2CN(C)CCc1ccc2ncccc2c1 |
| 2.88 | 1430 | COc1cccc2c1C(CN(C)CCc1ccc3c(c1)OCO3)CCC2 (stereo not drawn) |
| 6.07 | 53.9 | COc1cccc2c1CCC[C@H]2CN(C)CCc1ccc2ccncc2c1 |
| 5.67 | 9.47 | COc1cccc2c1CCC[C@H]2CN(C)CCc1ccc2nc(N)sc2c1 |
| 2.65 | 24.3 | COc1cccc2c1CCC[C@H]2CN(C)CCc1ccc2c(c1)CCS2 |
| 8.99 | 20.5 | COc1cccc2c1CCC[C@H]2CN(C)CCc1ccc2c(c1)CCC2 |
| 4.91 | 22.2 | COc1cccc2c1CCC[C@H]2CN(C)CCc1ccc2c(c1)CC(=O)N2 |
| 2.78 | 17.6 | COc1cccc2c1CCC[C@H]2CN(C)CCc1ccc2occc2c1 |
| 15.5 | 757 | COc1ccc2c(c1OC)CCC[C@H]2CN(C)CCc1ccc2c(c1)OCO2 |
| 125 | 183 | COc1cccc2c1CCC[C@H]2CN(C)CCc1ccc2c(c1)N(S(=O)(=O)C(F)(F)F)CC2 |
| 142 | 59.8 | COc1cccc2c1CCC[C@H]2CN(C)CCc1ccc2c(c1)CN(S(=O)(=O)C(F)(F)F)C2 |
| 23.5 | 469 | COc1ccc2c(c1)CCCC2CN(C)CCc1ccc2c(c1)OCO2 (stereo not drawn) |
| 1.81 | 44.4 | COc1cccc2c1CCC[C@H]2CN(C)CCc1ccc2nccnc2c1 |
| 17.9 | 52.8 | COc1cccc2c1CCC[C@H]2CN(C)CCc1ccc2sccc2c1 |
| 1.78 | 6.67 | COc1cccc2c1CCC[C@H]2CN(C)CCc1ccc2c(c1)CS(=O)(=O)C2 |
| 5.73 | 158 | CCN(CCc1ccc2c(c1)OCO2)C[C@@H]1CCCc2c(OC)cccc21 |
| 5.57 | 26.7 | CN(CCc1ccc2c(c1)OCO2)C[C@@H]1CCCc2c1ccc1c2OCC1 |

| Ki [1] [nM] | IC50 [2] [nM] | SMILES |
| --- | --- | --- |
| 1.76 | 14.6 | COc1cccc2c1CCC[C@H]2CN(C)CCc1ccc2c(c1)CCO2 |
| 4.51 | 19.4 | COc1cccc2c1CCC[C@H]2CN(C)CCc1ccc2nc(O)oc2c1 |
| 5.45 | 38.2 | COc1cccc2c1CCC[C@H]2CN(C)CCc1ccc2nc(Cl)sc2c1 |
| 4.88 | 101 | CN(CCc1ccc2c(c1)OCO2)C[C@@H]1CCCc2c1ccc1ccoc21 |
| 4.62 | 35 | COc1cccc2c1CCC[C@H]2CN(C)CCc1ccc2c(c1)CCN2S(C)(=O)=O |
| 10.8 | 16.3 | COc1cccc2c1CCC[C@H]2CN(C)CCc1ccc2[nH]c(O)nc2c1 |
| 5.35 | 38.9 | COc1cccc2c1CCC[C@H]2CN(C)CCc1ccc2c(c1)N(S(C)(=O)=O)CC2 |
| 1.7 | 12.7 | COc1cccc2c1CCC[C@H]2CN(C)CCc1ccc2c(c1)OCO2 |
| 7.54 | 1240 | CN(CCc1ccc2c(c1)OCO2)CC1CCCc2c(O)cccc21 (stereo not drawn) |
| 5.99 | 11.6 | COc1cccc2c1CCC[C@H]2CN(C)CCc1ccc2c(c1)CNC2 |
| 21 | 117 | CSc1cccc2c1CCCC2CN(C)CCc1ccc2c(c1)OCO2 (stereo not drawn) |
| 2.73 | 8.94 | COc1cccc2c1CCC[C@H]2CN(C)CCc1ccc2ncsc2c1 |
| 4.67 | 33.7 | COc1cccc2c1CCC[C@H]2CN(C)CCc1ccc2c(c1)CCS2(=O)=O |
| 19 | 658 | CN(CCc1ccc2c(c1)OCO2)CC1CCCc2c(NS(C)(=O)=O)cccc21 (stereo not drawn) |
| 9.27 | 42.8 | COc1cccc2c1CCC[C@H]2CN(C)CCc1ccc2nc(C)oc2c1 |
| 54.3 |  | COc1cccc2c1CCC[C@H]2CN(CCc1ccc2c(c1)OCO2)CC1CC1 |
| 1.77 | 16.7 | COc1cccc2c1CCC[C@H]2CN(C)CCc1ccc2ocnc2c1 |
| 1.22 | 5.25 | COc1cccc2c1CCC[C@H]2CN(C)CCc1ccc2ncoc2c1 |
